Like-named read-outs stand apart in the source and are kept apart here.
Experiments:
[1] = test system: climbing behavior induced by apomorphine; test: Anti-climbing behavior test (suppression of climbing behavior induced by apomorphine in mice); format: in vivo, dd strain male mice; conditions: for ED50: Mus musculus
Source text: This activity was examined through the anti-climbing behavior test, i.e. the test for suppressing the climbing behavior induced by apomorphine in mice. A designated amount of the test compound was orally administered to several groups of dd strain male mice (bodyweight, 20 to 25 g; one group, 5 mice), and each of the animals was charged in an individual column cage of 12 cm in diameter and 14 cm in height having metal poles (each pole, 2 mm in diameter) vertically installed and arranged along the periphery with intervals of 1 cm. […]
0 All the paws were on the floor
1 Only forepaws seized the pole of the cage
2 All the paws seized the pole of the cage;
climbing behavior observed discontinu-
3 Continuous climbing behavior observed

[2] = Extrapyramidal activity: catalepsy inducing activity test; format: in vivo, dd strain male mice; conditions: mouse, in vivo; oral; catalepsy checked 1 and 4 hours after administration; strained state over 30 seconds; mice
Method: (§1) A designated amount of the test compound was orally administered to dd strain male mice (bodyweight, 22 to 27 g), and 1 and 4 hours after the administration, catalepsy induction was checked according to the Wirth et al method. Thus, each of the animals was forced to hang its forepaws onto a metal pole of 2.5 mm in diameter horizontally situated at a height of 5 cm to keep in a strained state. The test was made with three repetitions, and the presence of at least one case in which the animal was kept in the strained state over a period of 30 seconds was deemed to have caused catalepsy.

catalepsy induction = test: as above; format: in vivo, dd strain male mice; conditions: oral
Method: as §1

[3] = cited from earlier work; for side effects on clinical use, in words: conventional neuroleptics
[4] = oral, after 1 hour, apomorphine 1.0 mg/kg s.c., mice, read-out: ED50, Oral administration After 1 hour (anti-climbing, neuroleptic activity)
[5] = oral, after 4 hours, apomorphine 1.0 mg/kg s.c., mice, read-out: ED50, Oral administration After 4 hours (anti-climbing, neuroleptic activity)
[6] = sc, subcutaneous, apomorphine 1.0 mg/kg s.c., mice, read-out: ED50, Subcutaneous administration (anti-climbing, neuroleptic activity)

SMILES	ED50 [2]	side effects on clinical use, in words [3]	ED50 [1, 4]	ED50 [1, 5]	ED50 [1, 6]	also measured
O=C(CCCN1CCC(O)(c2ccc(Cl)cc2)CC1)c1ccc(F)cc1 [Haloperidol, 4-[4-(4-chlorophenyl)-4-hydroxy-1-piperidinyl]-1-(4-fluorophenyl)-1-butanone]	3 mg/kg	serious side effects such as catalepsy and hypotension				ED50 ([1]; po, 1 h, read-out: ED50, Oral administration After 1 hour (anti-climbing, neuroleptic activity)): 0.67 mg/kg; ED50 ([1]; po, 4 h, read-out: ED50, Oral administration After 4 hours (anti-climbing, neuroleptic activity)): 0.44 mg/kg; ED50 ([1]; sc, read-out: ED50, Subcutaneous administration (anti-climbing, neuroleptic activity)): 0.21 mg/kg; neuroleptic activity (anti-climbing activity), in words ([1]; route not stated): significant neuroleptic activity; extrapyramidal activity (catalepsy inducing activity), in words (catalepsy induction): considerably high level of extra-pyramidal activity
O=C1[C@@H]2[C@H]3CC[C@H](C3)[C@@H]2C(=O)N1CCCCN1CCC(c2nsc3ccccc23)CC1 [Compound No. 2, N-[4-{4-(1,2-Benzisothiazol-3-yl)-1-piperidinyl}butyl]bicyclo[2.2.1]heptane-2,3-di-exo-carboximide]	10 to 30 mg/kg		3.5 mg/kg	3.4 mg/kg		
CN(C)CCCN1c2ccccc2Sc2ccc(Cl)cc21 [chlorpromazine, 2-chloro-10-(3-dimethylaminopropyl)phenothiazine]		serious side effects such as catalepsy and hypotension				
O=C(c1ccc(F)cc1)C1CCN(CCCCN2C(=O)[C@@H]3[C@H]4CC[C@H](C4)[C@@H]3C2=O)CC1 [Compound No. 1, N-[4-{4-(4-Fluorobenzoyl)piperidinyl}butyl]bicyclo[2.2.1]heptane-2,3-di-exo-carboximide]	25 to 50 mg/kg		3.7 mg/kg	21.8 mg/kg	0.12 mg/kg	
O=C(c1ccc(F)cc1)C1CCN(CCCCN2C(=O)[C@@H]3[C@H](C2=O)[C@H]2C=C[C@@H]3C2)CC1 [Compound No. 5, N-[4-{4-(4-Fluorobenzoyl)piperidinyl}butyl]bicyclo[2.2.1]hept-5-ene-2,3-di-exo-carboximide]	25 mg/kg		1.3 mg/kg	2.2 mg/kg	< 1 mg/kg	
O=C1CC2(CCCC2)CC(=O)N1CCCCN1CCN(c2nsc3ccccc23)CC1 [Tiaspiron, 8-[4-(3-benzisothiazolyl)-1-piperazinylbutyl]-8-azaspiro[4,5]decane-7,9-dione]			9.4 mg/kg	61.5 mg/kg	0.23 mg/kg	extrapyramidal side effects such as catalepsy inducing activity, in words ([3]; in comparison with butyrophenone compounds such as haloperidol): alleviated in extrapyramidal side effects such as catalepsy inducing activity

Source: patent US4812461A, “Imide derivatives and their use in the treatment psychosis” (Sumitomo Pharmaceuticals Company, Limited, priority 1986, dated 1989)
